# Data reported in patent publication US20220281846A1, “COMPOUNDS AND COMPOSITIONS FOR THE TREATMENT OF RESPIRATORY DISEASES” (THE UNIVERSITY OF MELBOURNE, priority 2018, published 2022).
# Where “and” joins values, the source holds several entries; their conditions need not be identical. Identical values can stand only once. Like-named read-outs stand apart in the source and are kept apart here.
# Experiments:
# [1] = In vivo determination of whole blood-to-plasma ratio; parameters: species or system male C57BL/6 mice; settings: male, C57BL/6, whole blood and plasma; mouse blood, 15 min and 1 h post-dose; read-out: apparent whole blood-to-plasma ratio (B/P)
# Method: Blood was collected from mice at 15 min and 1 h post-dose of each compound for the purposes of determining the whole blood-to-plasma (B/P) ratio. […] No adverse reactions or compound-related side effects observed in any mice during the 24 h sampling period after dosing any of the compounds. Plasma samples were also taken from 2 mice that were not administered test compound for use as analytical tool.
# Analysis of B/P partitioning samples was conducted similarly and quantified against calibration standards samples prepared using a 1:1 v/v mixture of blank mouse blood and plasma. The matrix matched B/P partitioning samples and standards were processed using protein precipitation with acetonitrile as described above.
# In Vivo Determination of Whole Blood-to-Plasma Ration
# Blood was collected via cardiac puncture (whilst under gaseous isoflurane anaesthesia) into tubes containing heparin and stabilisation cocktail. The haematocrit was determined via centrifugation (13000×g for 4 min using a Clemets® Microhematocrit centrifuge and Safecap® Plain Self-sealing Mylar Wrapped capillary tubes), and values ranged from 38% to 40% for PF670462 and 38% to 44% for ZH3-138. […]
# The B/P ratio was obtained by dividing the average measured concentration in blood by the average concentration measured in plasma following centrifugation of whole blood.
# [2] = Mouse pharmacokinetics, IV and oral administration; format: in vivo; settings: male C57BL/6 mice; for concentration at 0.017 h / concentration at 0.033 h / concentration at 0.083 h / concentration at 0.25 h / concentration at 0.5 h / concentration at 1 h / concentration at 2 h / concentration at 4 h / concentration at 7.5 h / concentration at 24 h: male, C57BL/6, mouse
# Method: PF670462 (2HCl.0.4 mol. eq. isopropanol) and ZH3-138 (unionised) were administered to male C57BL/6 mice by IV (3 mg/kg) or orally (10 mg/kg). IV administration was achieved by bolus injection into the tail vein of mice using 1 mL syringe with 25G×1″ needle at a volume of 3 mL/kg. Oral administration was achieved by gavage needle at a volume of 3 mL/kg.
# Intravenous (IV) and oral formulations were prepared using the same method. On the day of dosing, each of the solid compound was dissolved in DMSO to which an aqueous solution containing 10% Captisol was added. Hydrochloric acid (1 M) was used to modify pH for the formulation of ZH3-138 with the purpose of solubilising the compound (see Section B for the final pH of each formulation). The formulations of each compound were thoroughly vortexed, producing colourless solutions for all three compounds.
# The systemic exposure of PF670462 and ZH3-138 was studied in non-fasted male C57BL/6 mice weighing 19.8-26.8 g. Mice had access to food and water ad libitum throughout the pre- and post-dose sampling period.
# Compounds were dosed to mice by bolus injection into the lateral tail vein (3 mL/kg) for IV administration and by gavage (3 mL/kg) for oral administration. Following IV and oral administration, blood samples were collected up to 24 h (n=3 mice per time point) with a maximum of three samples from each mouse. Samples were collected via submandibular bleed (approximately 120 μL; conscious sampling). No urine samples were collected as mice were housed in bedded cages.
# Blood was collected into polypropylene Eppendorf tubes containing heparin as anticoagulant and stabilisation cocktail (containing Complete® (a protease inhibitor cocktail) and potassium fluoride) to minimise the potential for ex vivo compound degradation in blood/plasma samples.
# Once collected, blood samples were centrifuged immediately, supernatant plasma was removed, and stored at −80° C. until analysis by LC-MS.
# Plasma samples were quantified against calibration standards prepared by spiking blank mouse plasma (50 μL) with solution standards (10 μL) obtained by diluting a stock solution of test compound (1 mg/mL in DMSO) with 50% acetonitrile in water. Diazepam (10 μL of 5 μg/mL in 50% acetonitrile/water) was added to all plasma calibration standards and samples as an internal standard (IS). The extraction of the test compound and IS from plasma was conducted using protein precipitation with acetonitrile. Protein precipitation was carried out by the addition of acetonitrile followed by vortexing and centrifugation (10,000 rpm) for 3 minutes to obtain supernatant for analysis using the LC-MS conditions described in Table 7.
compound,measurement,setting,value
"Nc1nccc(-c2c(-c3ccc(F)cc3)ncn2C2CCC(F)(F)CC2)n1 [ZH3-138, 4-(1-(4,4-Difluorocyclohexyl)-4-(4-fluorophenyl)-1H-imidazol-5-yl)pyrimidin-2-amine]",blood plasma ratio,[1],0.91
same,apparent blood clearance,[2],low
same,apparent blood volume of distribution,[2],moderate
same,time post-dose for which plasma concentration was measurable (above LLQ),[2]; 24 h sampling period,≥ 24 h
same,"Plasma Concentration, Individual","[2]; IV 2.69 mg/kg, 0.017 h, 2.69 mg/kg",11.4 µM and 9.81 µM
same,"Plasma Concentration, Individual","[2]; IV 2.69 mg/kg, 0.033 h, 2.69 mg/kg",6.30 µM and 9.37 µM
same,"Plasma Concentration, Individual","[2]; IV 2.69 mg/kg, 0.083 h (actual sampling time was 0.10 h), 2.69 mg/kg",5.94 µM and 5.95 µM
same,"Plasma Concentration, Individual","[2]; IV 2.69 mg/kg, 0.25 h, 2.69 mg/kg",4.68 µM and 4.21 µM
same,"Plasma Concentration, Individual","[2]; IV 2.69 mg/kg, 0.5 h, 2.69 mg/kg",4.12 µM and 4.28 µM
same,"Plasma Concentration, Individual","[2]; IV 2.69 mg/kg, 1.0 h, 2.69 mg/kg",2.73 µM and 3.70 µM
same,"Plasma Concentration, Individual","[2]; IV 2.69 mg/kg, 2.0 h, 2.69 mg/kg",5.24 µM and 4.00 µM
same,"Plasma Concentration, Individual","[2]; IV 2.69 mg/kg, 4.0 h, 2.69 mg/kg",3.53 µM and 3.63 µM
same,"Plasma Concentration, Individual","[2]; IV 2.69 mg/kg, 7.5 h, 2.69 mg/kg",1.77 µM and 1.54 µM
same,"Plasma Concentration, Individual","[2]; IV 2.69 mg/kg, 24 h, 2.69 mg/kg",0.0287 µM and 0.0211 µM
same,"Plasma Concentration, Individual","[2]; oral 8.96 mg/kg, 0.25 h, 8.96 mg/kg",14.7 µM and 8.96 µM
same,"Plasma Concentration, Individual","[2]; oral 8.96 mg/kg, 0.50 h, 8.96 mg/kg",11.3 µM and 22.5 µM
same,"Plasma Concentration, Individual","[2]; oral 8.96 mg/kg, 1.0 h, 8.96 mg/kg",16.2 µM and 14.4 µM
same,"Plasma Concentration, Individual","[2]; oral 8.96 mg/kg, 2.0 h, 8.96 mg/kg",17.4 µM and 17.7 µM
same,"Plasma Concentration, Individual","[2]; oral 8.96 mg/kg, 4.0 h, 8.96 mg/kg",10.2 µM and 15.1 µM
same,"Plasma Concentration, Individual","[2]; oral 8.96 mg/kg, 7.5 h, 8.96 mg/kg",5.97 µM and 8.71 µM
same,"Plasma Concentration, Individual","[2]; oral 8.96 mg/kg, 24 h, 8.96 mg/kg",0.0400 µM and 0.0758 µM
same,time of apparent secondary peak in concentration-time profile,[2]; post-dose,2 h
same,concentration at 0.017 h,"[2]; plasma, iv, 2.69 mg/kg, IV 2.69 mg/kg, 0.017 h, read-out: Plasma Concentration, Individual",11.1 µM
same,concentration at 0.017 h,"[2]; plasma, iv, 2.69 mg/kg, IV 2.69 mg/kg, 0.017 h, read-out: Plasma Concentration, Mean",10.8 µM
same,concentration at 0.033 h,"[2]; plasma, iv, 2.69 mg/kg, IV 2.69 mg/kg, 0.033 h, read-out: Plasma Concentration, Individual",7.86 µM
same,concentration at 0.033 h,"[2]; plasma, iv, 2.69 mg/kg, IV 2.69 mg/kg, 0.033 h, read-out: Plasma Concentration, Mean",7.84 µM
same,concentration at 0.083 h,"[2]; plasma, iv, 2.69 mg/kg, IV 2.69 mg/kg, 0.083 h (actual sampling time was 0.10 h), read-out: Plasma Concentration, Individual",5.29 µM
same,concentration at 0.083 h,"[2]; plasma, iv, 2.69 mg/kg, IV 2.69 mg/kg, 0.083 h (actual sampling time was 0.10 h), read-out: Plasma Concentration, Mean",5.73 µM
same,concentration at 0.25 h,"[2]; plasma, iv, 2.69 mg/kg, IV 2.69 mg/kg, 0.25 h, read-out: Plasma Concentration, Individual",5.04 µM
same,concentration at 0.25 h,"[2]; plasma, iv, 2.69 mg/kg, IV 2.69 mg/kg, 0.25 h, read-out: Plasma Concentration, Mean",4.65 µM
same,concentration at 0.5 h,"[2]; plasma, iv, 2.69 mg/kg, IV 2.69 mg/kg, 0.5 h, read-out: Plasma Concentration, Individual",4.01 µM
same,concentration at 0.5 h,"[2]; plasma, iv, 2.69 mg/kg, IV 2.69 mg/kg, 0.5 h, read-out: Plasma Concentration, Mean",4.14 µM
same,concentration at 1 h,"[2]; plasma, iv, 2.69 mg/kg, IV 2.69 mg/kg, 1.0 h, read-out: Plasma Concentration, Individual",2.93 µM
same,concentration at 1 h,"[2]; plasma, iv, 2.69 mg/kg, IV 2.69 mg/kg, 1.0 h, read-out: Plasma Concentration, Mean",3.12 µM
same,concentration at 2 h,"[2]; plasma, iv, 2.69 mg/kg, IV 2.69 mg/kg, 2.0 h, read-out: Plasma Concentration, Individual",4.42 µM
same,concentration at 2 h,"[2]; plasma, iv, 2.69 mg/kg, IV 2.69 mg/kg, 2.0 h, read-out: Plasma Concentration, Mean",4.55 µM
same,concentration at 4 h,"[2]; plasma, iv, 2.69 mg/kg, IV 2.69 mg/kg, 4.0 h, read-out: Plasma Concentration, Individual",3.74 µM
same,concentration at 4 h,"[2]; plasma, iv, 2.69 mg/kg, IV 2.69 mg/kg, 4.0 h, read-out: Plasma Concentration, Mean",3.63 µM
same,concentration at 7.5 h,"[2]; plasma, iv, 2.69 mg/kg, IV 2.69 mg/kg, 7.5 h, read-out: Plasma Concentration, Individual",1.84 µM
same,concentration at 7.5 h,"[2]; plasma, iv, 2.69 mg/kg, IV 2.69 mg/kg, 7.5 h, read-out: Plasma Concentration, Mean",1.72 µM
same,concentration at 24 h,"[2]; plasma, iv, 2.69 mg/kg, IV 2.69 mg/kg, 24 h, read-out: Plasma Concentration, Individual",0.0237 µM
same,concentration at 24 h,"[2]; plasma, iv, 2.69 mg/kg, IV 2.69 mg/kg, 24 h, read-out: Plasma Concentration, Mean",0.0245 µM
same,concentration at 0.25 h,"[2]; plasma, po, 8.96 mg/kg, oral 8.96 mg/kg, 0.25 h, read-out: Plasma Concentration, Individual",12.1 µM
same,concentration at 0.25 h,"[2]; plasma, po, 8.96 mg/kg, oral 8.96 mg/kg, 0.25 h, read-out: Plasma Concentration, Mean",11.9 µM
same,concentration at 0.5 h,"[2]; plasma, po, 8.96 mg/kg, oral 8.96 mg/kg, 0.50 h, read-out: Plasma Concentration, Individual",13.7 µM
same,concentration at 0.5 h,"[2]; plasma, po, 8.96 mg/kg, oral 8.96 mg/kg, 0.50 h, read-out: Plasma Concentration, Mean",15.8 µM
same,concentration at 1 h,"[2]; plasma, po, 8.96 mg/kg, oral 8.96 mg/kg, 1.0 h, read-out: Plasma Concentration, Individual",13.9 µM
same,concentration at 1 h,"[2]; plasma, po, 8.96 mg/kg, oral 8.96 mg/kg, 1.0 h, read-out: Plasma Concentration, Mean",14.8 µM
same,concentration at 2 h,"[2]; plasma, po, 8.96 mg/kg, oral 8.96 mg/kg, 2.0 h, read-out: Plasma Concentration, Individual",13.8 µM
same,concentration at 2 h,"[2]; plasma, po, 8.96 mg/kg, oral 8.96 mg/kg, 2.0 h, read-out: Plasma Concentration, Mean",16.3 µM
same,concentration at 4 h,"[2]; plasma, po, 8.96 mg/kg, oral 8.96 mg/kg, 4.0 h, read-out: Plasma Concentration, Individual",11 µM
same,concentration at 4 h,"[2]; plasma, po, 8.96 mg/kg, oral 8.96 mg/kg, 4.0 h, read-out: Plasma Concentration, Mean",12.1 µM
same,concentration at 7.5 h,"[2]; plasma, po, 8.96 mg/kg, oral 8.96 mg/kg, 7.5 h, read-out: Plasma Concentration, Individual",6.59 µM
same,concentration at 7.5 h,"[2]; plasma, po, 8.96 mg/kg, oral 8.96 mg/kg, 7.5 h, read-out: Plasma Concentration, Mean",7.09 µM
same,concentration at 24 h,"[2]; plasma, po, 8.96 mg/kg, oral 8.96 mg/kg, 24 h, read-out: Plasma Concentration, Individual",0.0513 µM
same,concentration at 24 h,"[2]; plasma, po, 8.96 mg/kg, oral 8.96 mg/kg, 24 h, read-out: Plasma Concentration, Mean",0.0557 µM
same,half-life,"[2]; mouse, plasma, read-out: apparent half-life (converted)",~3 h
